Our source for the EC50 values is patent US7015329B2 (Janssen Pharmaceutica N. V., priority 2003, dated 2006).

The term EC50 denotes the midpoint of the concentration-response curve. A high value points to lower potency in that assay.

Holding throughout (type): cell-based
Settings in all cases: Table 1; HEK293 cells co-transfected with PPAR LBD-GAL4 and GAL4 (UAS) luciferase reporter, 18–24 hrs
For orientation: Reporter assays use an easily measured gene product as a stand-in for the process of interest.

One assay addresses T1, PPAR delta (Homo sapiens, UniProt Q03181).
T1 construct: expressed in transfected cells; host or cells: HEK293
T1 sequence (Q03181 211-439 limits assumed): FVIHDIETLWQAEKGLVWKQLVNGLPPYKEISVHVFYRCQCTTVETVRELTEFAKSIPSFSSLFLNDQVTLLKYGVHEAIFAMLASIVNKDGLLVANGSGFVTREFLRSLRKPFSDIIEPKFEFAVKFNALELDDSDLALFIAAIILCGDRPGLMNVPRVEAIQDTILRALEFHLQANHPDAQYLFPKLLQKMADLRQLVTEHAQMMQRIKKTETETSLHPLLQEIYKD
The assay can be described thus: Transfection assay for PPAR receptors (GAL4-LBD luciferase reporter), PPAR delta. As to the method:
(§1) Transfection Assay Method for PPAR Receptors
(§2) HEK293 cells were grown in DMEM/F12 medium supplemented with 10% FBS and glutamine (Invitrogen) and incubated in a 5% CO2 incubator at 37° C. The cells were co-transfected using DMRIE-C reagent (Invitrogen) in serum free medium (Opti-MEM, Invitrogen) with two mammalian expression plasmids, one containing the DNA sequence coding for the ligand binding domains of either PPARαg or d fused to the yeast GAL4 DNA binding domain and the other containing the promoter sequence of the yeast GAL4 (UAS) fused to the firefly luciferase cDNA reporter. The next day, the medium was changed to DMEM/F12 medium supplemented with 5% charcoal treated serum (Hyclone) and glutamine. After 6 hrs the cells were trypsinized and seeded at a density of 50,000 cells/well into 96 well plates and incubated overnight as above. The cells were then treated with -test compounds or vehicle and incubated for 18–24 hrs as above. Luciferase reporter activity was measured using the Steady-Glo Luciferase Assay Kit from Promega. DMRIE-C Reagent was purchased from GIBCO Cat. No.10459-014. […] Steady-Glo Luciferase Assay Kit was purchased from Promega (Part#E254B).

A further assay addresses T2, PPAR alpha (Homo sapiens, UniProt Q07869).
T2 construct: expressed in transfected cells; host or cells: HEK293
T2 sequence (Q07869 239-466 limits assumed): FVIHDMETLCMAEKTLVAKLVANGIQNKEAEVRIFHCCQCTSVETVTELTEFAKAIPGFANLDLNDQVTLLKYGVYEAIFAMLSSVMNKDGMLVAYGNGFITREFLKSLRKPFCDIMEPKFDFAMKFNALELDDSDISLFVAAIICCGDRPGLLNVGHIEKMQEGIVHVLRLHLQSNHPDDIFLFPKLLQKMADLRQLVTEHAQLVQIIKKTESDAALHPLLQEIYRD
In words: Transfection assay for PPAR receptors (GAL4-LBD luciferase reporter), PPAR alpha. The method, then: as §1
HEK293 cells were grown in DMEM/F12 medium supplemented with 10% FBS and glutamine (Invitrogen) and incubated in a 5% CO2 incubator at 37° C. The cells were co-transfected using DMRIE-C reagent (Invitrogen) in serum free medium (Opti-MEM, Invitrogen) with two mammalian expression plasmids, one containing the DNA sequence coding for the ligand binding domains of either PPARαg or d fused to the yeast GAL4 DNA binding domain and the other containing the promoter sequence of the yeast GAL4 (UAS) fused to the firefly luciferase cDNA reporter. The next day, the medium was changed to DMEM/F12 medium supplemented with 5% charcoal treated serum (Hyclone) and glutamine. After 6 hrs the cells were trypsinized and seeded at a density of 50,000 cells/well into 96 well plates and incubated overnight as above. The cells were then treated with -test compounds or vehicle and incubated for 18–24 hrs as above. Luciferase reporter activity was measured using the Steady-Glo Luciferase Assay Kit from Promega. DMRIE-C Reagent was purchased from GIBCO Cat. No.10459-014. OPTI-MEM I Reduced Serum Medium was purchased from GIBCO (Cat. No. 31985). Steady-Glo Luciferase Assay Kit was purchased from Promega (Part#E254B).
A variety of example compounds have been made and tested, with a range of in vitro results. Below are representative compounds and data; in some cases, where multiple EC50's are shown, multiple measurements were taken. Naturally, different compounds in Formula (I) may have not have activities identical to any one compound below.

A further assay has as its target T3, PPAR gamma (Homo sapiens, UniProt P37231).
T3 construct: expressed in transfected cells; host or cells: HEK293
T3 sequence (P37231 238-503 limits assumed): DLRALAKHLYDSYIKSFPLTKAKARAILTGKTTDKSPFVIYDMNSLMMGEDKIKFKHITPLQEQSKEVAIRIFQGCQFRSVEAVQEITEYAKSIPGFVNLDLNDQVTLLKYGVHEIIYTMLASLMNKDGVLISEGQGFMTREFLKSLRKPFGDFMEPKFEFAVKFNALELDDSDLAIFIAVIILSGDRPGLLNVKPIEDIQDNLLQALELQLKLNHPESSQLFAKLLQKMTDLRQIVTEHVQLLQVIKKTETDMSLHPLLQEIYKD
The assay can be described thus: Transfection assay for PPAR receptors (GAL4-LBD luciferase reporter), PPAR gamma. As to the method: as §1, §2

`Cc1ccc(-c2nsc(CSc3ccc(OC(C)(C)C(=O)O)c(C)c3)n2)cc1` [Compound 5, 2-Methyl-2-[2-methyl-4-(3-p-tolyl-[1,2,4]thiadiazol-5-ylmethylsulfanyl)-phenoxy]-propionic acid]: the EC50 was 47 nM on PPAR delta, 222 nM on PPAR alpha and greater than 3000 nM at PPAR gamma.

For `Cc1cc(SCc2nc(-c3ccc(C(C)(C)C)cc3)ns2)ccc1OC(C)(C)C(=O)O` [Compound 6, 2-{4-[3-(4-tert-Butyl-phenyl)-[1,2,4]thiadiazol-5-ylmethylsulfanyl]-2-methyl-phenoxy}-2-methyl-propionic acid], the 50% effective concentration (EC50) was 93 nM at PPAR delta, 64 nM on PPAR alpha and greater than 3000 nM on PPAR gamma.

For `Cc1cc(SCc2nc(-c3ccc(Cl)cc3)ns2)ccc1OC(C)(C)C(=O)O` [Compound 7, 2-{4-[3-(4-Chloro-phenyl)-[1,2,4]thiadiazol-5-ylmethylsulfanyl]-2-methyl-phenoxy}-2-methyl-propionic acid], the results for the 50% effective concentration (EC50) at PPAR delta, on PPAR alpha and on PPAR gamma were 18 nM, 186 nM and greater than 3000 nM, respectively.

In the case of `Cc1cc(SCc2nc(-c3ccc(OC(F)(F)F)c(Cl)c3)ns2)ccc1OC(C)(C)C(=O)O` [Compound 8, 2-{4-[3-(3-Chloro-4-trifluoromethoxy-phenyl)-[1,2,4]thiadiazol-5-ylmethylsulfanyl]-2-methyl-phenoxy}-2-methyl-propionic acid], the concentration for a half-maximal effect (EC50) at PPAR delta is 2.8 nM; on PPAR alpha, 28 nM; at PPAR gamma, greater than 3000 nM.

In the case of `Cc1cc(SCc2nc(-c3ccc(Cl)c(Cl)c3)ns2)ccc1OC(C)(C)C(=O)O` [Compound 9, 2-{4-[3-(3,4-Dichloro-phenyl)-[1,2,4]thiadiazol-5-ylmethylsulfanyl]-2-methyl-phenoxy}-2-methyl-propionic acid], the EC50 was 13 nM at PPAR delta, 104 nM at PPAR alpha and greater than 3000 nM at PPAR gamma.

With `Cc1cc(SCc2nc(-c3ccc(Cl)cc3Cl)ns2)ccc1OC(C)(C)C(=O)O` [Compound 10, 2-{4-[3-(2,4-Dichloro-phenyl)-[1,2,4]thiadiazol-5-ylmethylsulfanyl]-2-methyl-phenoxy}-2-methyl-propionic acid], the values for the EC50 at PPAR delta, at PPAR alpha and at PPAR gamma were 102 nM, 476 nM and greater than 3000 nM, respectively.

For `Cc1ccc(-c2nsc(CSc3ccc(OC(C)(C)C(=O)O)c(C)c3)n2)cc1Cl` [Compound 12, 2-{4-[3-(3-Chloro-4-methyl-phenyl)-[1,2,4]thiadiazol-5-ylmethylsulfanyl]-2-methyl-phenoxy}-2-methyl-propionic acid], the values for the EC50 on PPAR delta, at PPAR alpha and on PPAR gamma were 27 nM, 68 nM and 669 nM, respectively.

Turning to `Cc1cc(SCc2nc(-c3ccc(C(F)(F)F)c(F)c3)ns2)ccc1OC(C)(C)C(=O)O` [Compound 13, 2-{4-[3-(3-Fluoro-4-trifluoromethyl-phenyl)-[1,2,4]thiadiazol-5-ylmethylsulfanyl]-2-methyl-phenoxy}-2-methyl-propionic acid], the concentration for a half-maximal effect (EC50) was found to be 5.2 nM on PPAR delta, 34 nM at PPAR alpha and 640 nM at PPAR gamma.

`Cc1cc(SCc2nc(-c3ccc(OC(F)(F)F)cc3)ns2)ccc1OC1(C(=O)O)CCCC1` [Compound 14, 1-{2-Methyl-4-[3-(4-trifluoromethoxy-phenyl)-[1,2,4]thiadiazol-5-ylmethylsulfanyl]-phenoxy}-cyclopentanecarboxylic acid]: the EC50 was greater than 1000 nM at PPAR delta, 736 nM at PPAR alpha and greater than 3000 nM on PPAR gamma.

On to `Cc1cc(SCc2nc(-c3ccc(Cl)c(Cl)c3)ns2)ccc1OC1(C(=O)O)CCCC1` [Compound 15, 1-{4-[3-(3,4-Dichloro-phenyl)-[1,2,4]thiadiazol-5-ylmethylsulfanyl]-2-methyl-phenoxy}-cyclopentanecarboxylic acid], for which the EC50 was greater than 1000 nM on PPAR delta, greater than 3000 nM at PPAR alpha and greater than 3000 nM at PPAR gamma.

Regarding `Cc1cc(SCc2nsc(-c3ccc(C(F)(F)F)cc3)n2)ccc1OC(C)(C)C(=O)O` [Compound 16, 2-Methyl-2-{2-methyl-4-[5-(4-trifluoromethyl-phenyl)-[1,2,4]thiadiazol-3-ylmethylsulfanyl]-phenoxy}-propionic acid], the EC50 on PPAR delta was 26 nM; at PPAR alpha it was 425 nM; at PPAR gamma, greater than 3000 nM.

Turning to `Cc1cc(SCc2nsc(-c3ccc(OC(F)(F)F)cc3)n2)ccc1OC(C)(C)C(=O)O` [Compound 17, 2-Methyl-2-{2-methyl-4-[5-(4-trifluoromethoxy-phenyl)-[1,2,4]thiadiazol-3-ylmethylsulfanyl]-phenoxy}-propionic acid], the figures for the EC50 at PPAR delta and at PPAR alpha were 58 nM and 656 nM, respectively.

For `Cc1cc(SCc2nsc(-c3ccc(Cl)cc3)n2)ccc1OC(C)(C)C(=O)O` [Compound 18, 2-{4-[5-(4-Chloro-phenyl)-[1,2,4]thiadiazol-3-ylmethylsulfanyl]-2-methyl-phenoxy}-2-methyl-propionic acid], the results for the concentration giving a half-maximal response (EC50) on PPAR delta, on PPAR alpha and on PPAR gamma were 237 nM, greater than 3000 nM and greater than 3000 nM, respectively.

As for `Cc1cc(SCc2nsc(-c3ccc(Cl)c(Cl)c3)n2)ccc1OC(C)(C)C(=O)O` [Compound 19, 2-{4-[5-(3,4-Dichloro-phenyl)-[1,2,4]thiadiazol-3-ylmethylsulfanyl]-2-methyl-phenoxy}-2-methyl-propionic acid], the figures for the concentration for a half-maximal effect (EC50) on PPAR delta, at PPAR alpha and on PPAR gamma were 229 nM, greater than 3000 nM and greater than 3000 nM, respectively.

As to `Cc1ccc(-c2nsc(COc3ccc(OC(C)(C)C(=O)O)c(C)c3)n2)cc1Cl` [Compound 20, 2-{4-[3-(3-Chloro-4-methyl-phenyl)-[1,2,4]thiadiazol-5-ylmethoxy]-2-methyl-phenoxy}-2-methyl-propionic acid], the EC50 is 148 nM on PPAR delta, 297 nM at PPAR alpha and greater than 3000 nM at PPAR gamma.

As to `Cc1cc(OCc2nc(-c3ccc(C(F)(F)F)c(F)c3)ns2)ccc1OC(C)(C)C(=O)O` [Compound 21, 2-{4-[3-(3-Fluoro-4-trifluoromethyl-phenyl)-[1,2,4]thiadiazol-5-ylmethoxy]-2-methyl-phenoxy}-2-methyl-propionic acid], the EC50 was 3 nM at PPAR delta, 85 nM at PPAR alpha and greater than 3000 nM at PPAR gamma.

For the compound `Cc1ccc(-c2nsc(COc3ccc(OC(C)(C)C(=O)O)c(C)c3)n2)cc1C` [Compound 22, 2-{4-[3-(3,4-Dimethyl-phenyl)-[1,2,4]thiadiazol-5-ylmethoxy]-2-methyl-phenoxy}-2-methyl-propionic acid], the results for the EC50 on PPAR delta, at PPAR alpha and on PPAR gamma were 534 nM, 643 nM and greater than 3000 nM, respectively.

Regarding `Cc1cc(OCc2nc(-c3ccc(OC(F)(F)F)cc3)ns2)ccc1OC(C)(C)C(=O)O` [Compound 24, 2-Methyl-2-{2-methyl-4-[3-(4-trifluoromethoxy-phenyl)-[1,2,4]thiadiazol-5-ylmethoxy]-phenoxy}-propionic acid], the EC50 on PPAR delta is 12.3 nM; at PPAR alpha it was 93.5 nM; on PPAR gamma it was greater than 3000 nM.

On to `Cc1cc(OCc2nc(-c3ccc(OC(F)(F)F)c(Cl)c3)ns2)ccc1OC(C)(C)C(=O)O` [Compound 25], for which the EC50 on PPAR delta was 13 nM; on PPAR alpha it was 96.8 nM; on PPAR gamma, greater than 3000 nM.
